{"source": "patent US6214377A", "about": "(Jenapharm GmbH, priority 1994, dated 2001)", "origin": "cited, not measured here", "key": {"[1]": {"conditions": "peroral administration"}, "[2]": {"conditions": "human body"}}, "data": [{"smiles": "COc1ccc2[nH]cc(CCNC(C)=O)c2c1", "note": "[melatonin, N-acetyl-5-methoxy-triptamine]", "values": [{"measurement": "side effects of unphysiological overdose", "setting": "[1]", "value": "Increased spasmogenic situations, confusion, and sleeplessness"}, {"measurement": "half-life period", "setting": "[2]", "value": "about 30 minutes"}]}]}
